Test results from PubChem BioAssay (NCI).
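Briefly, cells in 96-well plates were exposed to five compound concentrations for 48 h, and endpoints were estimated by linear interpolation. TGI: concentration producing complete growth inhibition.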

Tested on: ACHN renal
Assay: NCI tumour cell line growth inhibition, 48 h

| Compound | TGI [µM] |
| --- | --- |
| S=C(NCc1ccccc1)c1nc[nH]c1C(=S)NCc1ccccc1 | 7.51 |
| O=Cc1ccc2c(c1)CC1(C2)Cc2ccc3c(c2C1)CCC3 (stereo not drawn) | > 100 |
| CC(C)(Cc1ccccc1)NC1=NCCO1 | > 100 |
| C=C(C)C(CC=C(C)C)CC12CC(CC=C(C)C)C(C)(C)C(CC=C(C)C)(C(=O)C(Cc3ccc(O)c(O)c3)=C1O)C2=O (stereo not drawn) | > 100 |
| CCc1nc(N)nc(N)c1-c1ccc2nn(-c3ccccc3)[n+]([O-])c2c1 | 17.3 |
| Nc1nc(N)c2[nH]c(CNc3ccc(C(=O)O)cc3)nc2n1 | > 100 |
| CCC1(CC)SCc2nc3ccccc3n21 | > 100 |
| C[C@]12CC[C@H](O)CC1=CC[C@@H]1[C@@H]2CC[C@]2(C)C(=O)[C@@H](N3CCOCC3)C[C@@H]12 | > 100 |
| CC(=O)n1nc(-c2ccccc2)n(/N=C/c2ccc([N+](=O)[O-])cc2)c1=O | > 100 |
| COc1ccc(C(=O)Sc2c(-c3ccccc3)c(=O)n(-c3ccccc3)c(=S)n2-c2ccccc2)cc1 | > 100 |
| COc1ccc(CC2c3cc(Oc4cc(CC5c6cc(OC)c(OC)cc6CCN5C)ccc4O)c(OC)cc3CCN2C)cc1 (stereo not drawn) | 13.5 |
| COc1ccc(C(C)NNC(=O)c2ccncc2)c(OC)c1 (stereo not drawn) | > 100 |
| O=[N+]([O-])c1cc2oc(COc3ccccc3)nc2cc1Cl | > 100 |
| Cc1ccc(S(=O)(=O)N/N=C/C(=C/c2ccc(Cl)cc2)CC(/C=N/NS(=O)(=O)c2ccc(C)cc2)=C\c2ccc(Cl)cc2)cc1 | 19.1 |
| CC(C)(C)c1cc(C(P(=O)(c2ccccc2)c2ccccc2)P(=O)(c2ccccc2)c2ccccc2)cc(C(C)(C)C)c1O | > 10 |
| CCn1c(-c2cc(OC)cc(OC)c2)nc2c1C(=O)c1ccccc1C2=O | > 100 |
| CCN(CC)c1c(N(CC)CC)c(=O)c1=O | 21.1 |
| COc1cc(-c2cc(=O)c3c(OC)c(OC)c(OC)c(OC)c3o2)c(OC)c(OC)c1OC | > 100 |
| O=[N+]([O-])c1ccc(Cl)c(C=NC23CC4CC(CC(C4)C2)C3)c1 | > 10 |
| CCSc1n/c(=C\c2ccco2)c2nnnn12 | > 100 |
| COc1cc(/C=C2\CCC(C)C3C2=NN(C(C)=O)C3c2cc(OC)c(OC)c(OC)c2)cc(OC)c1OC (stereo not drawn) | > 100 |
| CCCCCCCCCCCCCCCCCCNc1ccn(C2OC(COP(=O)(O)OCC3OC(n4cc(C)c(=O)[nH]c4=O)CC3O)C(O)C2O)c(=O)n1 (stereo not drawn) | 44.4 |
| CC[N+](CC)(CCNCC(N)=O)CC(N)=O | > 10 |
| COc1cc(Nc2cnc3cc(F)c(F)cc3n2)cc(OC)c1OC | > 100 |

Tested on: EKVX NSCLC
Assay: NCI tumour cell line growth inhibition, 48 h

| Compound | TGI [µM] |
| --- | --- |
| S=C(NCc1ccccc1)c1nc[nH]c1C(=S)NCc1ccccc1 | 17 |
| O=Cc1ccc2c(c1)CC1(C2)Cc2ccc3c(c2C1)CCC3 (stereo not drawn) | > 59.2 |
| CC(C)(Cc1ccccc1)NC1=NCCO1 | > 100 |
| C=C(C)C(CC=C(C)C)CC12CC(CC=C(C)C)C(C)(C)C(CC=C(C)C)(C(=O)C(Cc3ccc(O)c(O)c3)=C1O)C2=O (stereo not drawn) | > 100 |
| CCc1nc(N)nc(N)c1-c1ccc2nn(-c3ccccc3)[n+]([O-])c2c1 | 35.1 |
| Nc1nc(N)c2[nH]c(CNc3ccc(C(=O)O)cc3)nc2n1 | > 100 |
| CCC1(CC)SCc2nc3ccccc3n21 | 73.7 |
| C[C@]12CC[C@H](O)CC1=CC[C@@H]1[C@@H]2CC[C@]2(C)C(=O)[C@@H](N3CCOCC3)C[C@@H]12 | > 100 |
| CC(=O)n1nc(-c2ccccc2)n(/N=C/c2ccc([N+](=O)[O-])cc2)c1=O | > 100 |
| COc1ccc(C(=O)Sc2c(-c3ccccc3)c(=O)n(-c3ccccc3)c(=S)n2-c2ccccc2)cc1 | > 100 |
| COc1ccc(CC2c3cc(Oc4cc(CC5c6cc(OC)c(OC)cc6CCN5C)ccc4O)c(OC)cc3CCN2C)cc1 (stereo not drawn) | 15.9 |
| COc1ccc(C(C)NNC(=O)c2ccncc2)c(OC)c1 (stereo not drawn) | > 100 |
| O=[N+]([O-])c1cc2oc(COc3ccccc3)nc2cc1Cl | 73.6 |
| Cc1ccc(S(=O)(=O)N/N=C/C(=C/c2ccc(Cl)cc2)CC(/C=N/NS(=O)(=O)c2ccc(C)cc2)=C\c2ccc(Cl)cc2)cc1 | 38.4 |
| CC(C)(C)c1cc(C(P(=O)(c2ccccc2)c2ccccc2)P(=O)(c2ccccc2)c2ccccc2)cc(C(C)(C)C)c1O | > 10 |
| CCn1c(-c2cc(OC)cc(OC)c2)nc2c1C(=O)c1ccccc1C2=O | > 100 |
| CCN(CC)c1c(N(CC)CC)c(=O)c1=O | 28.6 |
| COc1cc(-c2cc(=O)c3c(OC)c(OC)c(OC)c(OC)c3o2)c(OC)c(OC)c1OC | > 100 |
| O=[N+]([O-])c1ccc(Cl)c(C=NC23CC4CC(CC(C4)C2)C3)c1 | > 10 |
| CCSc1n/c(=C\c2ccco2)c2nnnn12 | > 100 |
| COc1cc(/C=C2\CCC(C)C3C2=NN(C(C)=O)C3c2cc(OC)c(OC)c(OC)c2)cc(OC)c1OC (stereo not drawn) | > 100 |
| CCCCCCCCCCCCCCCCCCNc1ccn(C2OC(COP(=O)(O)OCC3OC(n4cc(C)c(=O)[nH]c4=O)CC3O)C(O)C2O)c(=O)n1 (stereo not drawn) | 34.9 |
| CC[N+](CC)(CCNCC(N)=O)CC(N)=O | > 10 |
| COc1cc(Nc2cnc3cc(F)c(F)cc3n2)cc(OC)c1OC | > 100 |

Tested on: HOP-92 NSCLC
Assay: NCI tumour cell line growth inhibition, 48 h

| Compound | TGI [µM] |
| --- | --- |
| S=C(NCc1ccccc1)c1nc[nH]c1C(=S)NCc1ccccc1 | 12.3 |
| O=Cc1ccc2c(c1)CC1(C2)Cc2ccc3c(c2C1)CCC3 (stereo not drawn) | > 48.3 |
| CC(C)(Cc1ccccc1)NC1=NCCO1 | > 100 |
| C=C(C)C(CC=C(C)C)CC12CC(CC=C(C)C)C(C)(C)C(CC=C(C)C)(C(=O)C(Cc3ccc(O)c(O)c3)=C1O)C2=O (stereo not drawn) | > 100 |
| CCc1nc(N)nc(N)c1-c1ccc2nn(-c3ccccc3)[n+]([O-])c2c1 | 27 |
| Nc1nc(N)c2[nH]c(CNc3ccc(C(=O)O)cc3)nc2n1 | > 100 |
| CCC1(CC)SCc2nc3ccccc3n21 | 61.2 |
| C[C@]12CC[C@H](O)CC1=CC[C@@H]1[C@@H]2CC[C@]2(C)C(=O)[C@@H](N3CCOCC3)C[C@@H]12 | > 100 |
| CC(=O)n1nc(-c2ccccc2)n(/N=C/c2ccc([N+](=O)[O-])cc2)c1=O | > 100 |
| COc1ccc(C(=O)Sc2c(-c3ccccc3)c(=O)n(-c3ccccc3)c(=S)n2-c2ccccc2)cc1 | 71.2 |
| COc1ccc(CC2c3cc(Oc4cc(CC5c6cc(OC)c(OC)cc6CCN5C)ccc4O)c(OC)cc3CCN2C)cc1 (stereo not drawn) | 14.6 |
| COc1ccc(C(C)NNC(=O)c2ccncc2)c(OC)c1 (stereo not drawn) | > 100 |
| O=[N+]([O-])c1cc2oc(COc3ccccc3)nc2cc1Cl | > 100 |
| Cc1ccc(S(=O)(=O)N/N=C/C(=C/c2ccc(Cl)cc2)CC(/C=N/NS(=O)(=O)c2ccc(C)cc2)=C\c2ccc(Cl)cc2)cc1 | 12.4 |
| CC(C)(C)c1cc(C(P(=O)(c2ccccc2)c2ccccc2)P(=O)(c2ccccc2)c2ccccc2)cc(C(C)(C)C)c1O | 5.65 |
| CCn1c(-c2cc(OC)cc(OC)c2)nc2c1C(=O)c1ccccc1C2=O | > 100 |
| CCN(CC)c1c(N(CC)CC)c(=O)c1=O | 11.4 |
| COc1cc(-c2cc(=O)c3c(OC)c(OC)c(OC)c(OC)c3o2)c(OC)c(OC)c1OC | 82.5 |
| O=[N+]([O-])c1ccc(Cl)c(C=NC23CC4CC(CC(C4)C2)C3)c1 | > 10 |
| CCSc1n/c(=C\c2ccco2)c2nnnn12 | > 100 |
| COc1cc(/C=C2\CCC(C)C3C2=NN(C(C)=O)C3c2cc(OC)c(OC)c(OC)c2)cc(OC)c1OC (stereo not drawn) | > 100 |
| CCCCCCCCCCCCCCCCCCNc1ccn(C2OC(COP(=O)(O)OCC3OC(n4cc(C)c(=O)[nH]c4=O)CC3O)C(O)C2O)c(=O)n1 (stereo not drawn) | 62.8 |
| CC[N+](CC)(CCNCC(N)=O)CC(N)=O | > 10 |
| COc1cc(Nc2cnc3cc(F)c(F)cc3n2)cc(OC)c1OC | > 100 |

Tested on: M14 melanoma
Assay: NCI tumour cell line growth inhibition, 48 h

| Compound | TGI [µM] |
| --- | --- |
| S=C(NCc1ccccc1)c1nc[nH]c1C(=S)NCc1ccccc1 | 20.7 |
| O=Cc1ccc2c(c1)CC1(C2)Cc2ccc3c(c2C1)CCC3 (stereo not drawn) | 21.3 |
| CC(C)(Cc1ccccc1)NC1=NCCO1 | > 100 |
| C=C(C)C(CC=C(C)C)CC12CC(CC=C(C)C)C(C)(C)C(CC=C(C)C)(C(=O)C(Cc3ccc(O)c(O)c3)=C1O)C2=O (stereo not drawn) | > 100 |
| CCc1nc(N)nc(N)c1-c1ccc2nn(-c3ccccc3)[n+]([O-])c2c1 | 18.8 |
| Nc1nc(N)c2[nH]c(CNc3ccc(C(=O)O)cc3)nc2n1 | > 100 |
| CCC1(CC)SCc2nc3ccccc3n21 | 70.5 |
| C[C@]12CC[C@H](O)CC1=CC[C@@H]1[C@@H]2CC[C@]2(C)C(=O)[C@@H](N3CCOCC3)C[C@@H]12 | > 100 |
| CC(=O)n1nc(-c2ccccc2)n(/N=C/c2ccc([N+](=O)[O-])cc2)c1=O | > 100 |
| COc1ccc(C(=O)Sc2c(-c3ccccc3)c(=O)n(-c3ccccc3)c(=S)n2-c2ccccc2)cc1 | > 100 |
| COc1ccc(CC2c3cc(Oc4cc(CC5c6cc(OC)c(OC)cc6CCN5C)ccc4O)c(OC)cc3CCN2C)cc1 (stereo not drawn) | 12.1 |
| COc1ccc(C(C)NNC(=O)c2ccncc2)c(OC)c1 (stereo not drawn) | > 100 |
| O=[N+]([O-])c1cc2oc(COc3ccccc3)nc2cc1Cl | 43.5 |
| Cc1ccc(S(=O)(=O)N/N=C/C(=C/c2ccc(Cl)cc2)CC(/C=N/NS(=O)(=O)c2ccc(C)cc2)=C\c2ccc(Cl)cc2)cc1 | 48.1 |
| CC(C)(C)c1cc(C(P(=O)(c2ccccc2)c2ccccc2)P(=O)(c2ccccc2)c2ccccc2)cc(C(C)(C)C)c1O | 3.84 |
| CCn1c(-c2cc(OC)cc(OC)c2)nc2c1C(=O)c1ccccc1C2=O | > 100 |
| CCN(CC)c1c(N(CC)CC)c(=O)c1=O | 36.9 |
| COc1cc(-c2cc(=O)c3c(OC)c(OC)c(OC)c(OC)c3o2)c(OC)c(OC)c1OC | > 100 |
| O=[N+]([O-])c1ccc(Cl)c(C=NC23CC4CC(CC(C4)C2)C3)c1 | > 10 |
| CCSc1n/c(=C\c2ccco2)c2nnnn12 | > 100 |
| COc1cc(/C=C2\CCC(C)C3C2=NN(C(C)=O)C3c2cc(OC)c(OC)c(OC)c2)cc(OC)c1OC (stereo not drawn) | > 100 |
| CCCCCCCCCCCCCCCCCCNc1ccn(C2OC(COP(=O)(O)OCC3OC(n4cc(C)c(=O)[nH]c4=O)CC3O)C(O)C2O)c(=O)n1 (stereo not drawn) | 30.7 |
| CC[N+](CC)(CCNCC(N)=O)CC(N)=O | > 10 |
| COc1cc(Nc2cnc3cc(F)c(F)cc3n2)cc(OC)c1OC | > 100 |

Tested on: MALME-3M melanoma
Assay: NCI tumour cell line growth inhibition, 48 h

| Compound | TGI [µM] |
| --- | --- |
| S=C(NCc1ccccc1)c1nc[nH]c1C(=S)NCc1ccccc1 | 24.6 |
| O=Cc1ccc2c(c1)CC1(C2)Cc2ccc3c(c2C1)CCC3 (stereo not drawn) | 21.8 |
| CC(C)(Cc1ccccc1)NC1=NCCO1 | > 100 |
| C=C(C)C(CC=C(C)C)CC12CC(CC=C(C)C)C(C)(C)C(CC=C(C)C)(C(=O)C(Cc3ccc(O)c(O)c3)=C1O)C2=O (stereo not drawn) | > 100 |
| CCc1nc(N)nc(N)c1-c1ccc2nn(-c3ccccc3)[n+]([O-])c2c1 | 22.7 |
| Nc1nc(N)c2[nH]c(CNc3ccc(C(=O)O)cc3)nc2n1 | > 100 |
| CCC1(CC)SCc2nc3ccccc3n21 | 94.8 |
| C[C@]12CC[C@H](O)CC1=CC[C@@H]1[C@@H]2CC[C@]2(C)C(=O)[C@@H](N3CCOCC3)C[C@@H]12 | > 100 |
| CC(=O)n1nc(-c2ccccc2)n(/N=C/c2ccc([N+](=O)[O-])cc2)c1=O | > 100 |
| COc1ccc(C(=O)Sc2c(-c3ccccc3)c(=O)n(-c3ccccc3)c(=S)n2-c2ccccc2)cc1 | > 100 |
| COc1ccc(CC2c3cc(Oc4cc(CC5c6cc(OC)c(OC)cc6CCN5C)ccc4O)c(OC)cc3CCN2C)cc1 (stereo not drawn) | 17.6 |
| COc1ccc(C(C)NNC(=O)c2ccncc2)c(OC)c1 (stereo not drawn) | > 100 |
| O=[N+]([O-])c1cc2oc(COc3ccccc3)nc2cc1Cl | 94.5 |
| Cc1ccc(S(=O)(=O)N/N=C/C(=C/c2ccc(Cl)cc2)CC(/C=N/NS(=O)(=O)c2ccc(C)cc2)=C\c2ccc(Cl)cc2)cc1 | 22 |
| CC(C)(C)c1cc(C(P(=O)(c2ccccc2)c2ccccc2)P(=O)(c2ccccc2)c2ccccc2)cc(C(C)(C)C)c1O | 6.38 |
| CCn1c(-c2cc(OC)cc(OC)c2)nc2c1C(=O)c1ccccc1C2=O | > 100 |
| CCN(CC)c1c(N(CC)CC)c(=O)c1=O | 13.2 |
